In the supplement of paper PMC4862054:

Legend:
HDQ-P1 [1] = assay: normalised viability (% of control), CellTiter-Blue; higher = more viable cells (about 100 = DMSO control); settings: 300 nM; incubation time: 72 h
Protocol: (§1)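 DSRT, CellTiter-Blue viability, 72 h incubation. Signal is normalised to DMSO and benzethonium chloride controls. Value is the normalised response at dose 6.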

MDA-MB-453 [2] = assay: as above; settings: 300 nM; incubation time: 72 h
Protocol: as §1

DU-4475 = assay: normalised viability (% of control), CellTiter-Blue; higher = more viable cells (about 100 = DMSO control); settings: incubation time: 72 h
How it was run: (§2)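 Breast cancer cell lines were treated for 72 h in 384-well format and measured by CellTiter-Blue fluorescence at 560/590 nm. Results were normalised per plate to vehicle (100) and a positive kill control (0). The entry is normalised viability at a single listed concentration of the series.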

Hs578T [3] = assay: as above; settings: incubation time: 72 h
How it was run: as §2

HCC1599 = assay: as above; settings: incubation time: 72 h
How it was run: as §2

HCC1143 = assay: as above; settings: incubation time: 72 h
How it was run: as §2

CAL-148 = assay: as above; settings: incubation time: 72 h
How it was run: as §2

MDA-MB-468 = assay: as above; settings: incubation time: 72 h
How it was run: as §2

CAL-51 = assay: as above; settings: incubation time: 72 h
How it was run: as §2

MDA-MB-231 = assay: as above; settings: incubation time: 72 h
How it was run: as §2

HDQ-P1 [4] = assay: as above; settings: incubation time: 72 h
How it was run: as §2

CAL-120 = assay: as above; settings: incubation time: 72 h
How it was run: as §2

MDA-MB-436 [5] = assay: as above; settings: incubation time: 72 h
How it was run: as §2

BT-549 = assay: as above; settings: incubation time: 72 h
How it was run: as §2

MFM-223 = assay: as above; settings: incubation time: 72 h
How it was run: as §2

MDA-MB-453 [6] = assay: as above; settings: incubation time: 72 h
How it was run: as §2

HCC1937 [7] = assay: as above; settings: incubation time: 72 h
How it was run: as §2

SK-BR-3 = assay: as above; settings: incubation time: 72 h
How it was run: as §2

CAL-85-1 = assay: as above; settings: incubation time: 72 h
How it was run: as §2

BT-474 = assay: as above; settings: incubation time: 72 h
How it was run: as §2

Hs578T [8] = assay: drug sensitivity score (DSS), CellTiter-Blue viability (DSS (AUC-based score)); higher = stronger viability inhibition; extreme values may be limits of the assay; settings: incubation time: 72 h
How it was run: (§3)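 Drug sensitivity scores correspond to the area under the fitted dose-response curve. Breast cancer cell lines were incubated 72 h with compound at 5 or 9 concentrations in 384-well plates. Viability, read as CellTiter-Blue fluorescence at 560/590 nm, was normalised per plate to 0.1 % DMSO and a positive kill control.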

MDA-MB-436 [9] = assay: as above; settings: incubation time: 72 h
How it was run: as §3

HCC1937 [10] = assay: as above; settings: incubation time: 72 h
How it was run: as §3

Nc1nc2[nH]cc(CCc3ccc(C(=O)N[C@@H](CCC(=O)O)C(=O)O)cc3)c2c(=O)[nH]1 [Pemetrexed]
Settings	drug sensitivity score	normalised viability [%]
HCC1937 [10]	0	–
HDQ-P1 [1]	–	83.7
Hs578T [8]	0	–
MDA-MB-436 [9]	0	–
MDA-MB-453 [2]	–	102

normalised viability [%]
Settings	3 nM	10 nM	30 nM	100 nM	1000 nM	10000 nM
BT-474	–	123	–	–	112	122
BT-549	–	90.8	–	–	90.7	79.6
CAL-51	105	–	100	107	–	–
CAL-85-1	99.6	–	91	101	–	–
CAL-120	–	84.2	–	–	77.4	63.3
CAL-148	95	–	105	106	–	–
DU-4475	106	–	117	108	–	–
HCC1143	–	90.8	–	–	77.4	72.2
HCC1599	–	106	–	–	80.2	106
HCC1937 [7]	–	89	–	–	93.4	85.5
HDQ-P1 [4]	110	–	100	101	–	–
Hs578T [3]	–	124	–	–	106	82.5
MDA-MB-231	–	97.5	–	–	98.9	92.4
MDA-MB-436 [5]	–	107	–	–	75.3	82.5
MDA-MB-453 [6]	128	–	96	114	–	–
MDA-MB-468	–	97.7	–	–	71.9	99.5
MFM-223	–	96.2	–	–	101	98.2
SK-BR-3	–	97.5	–	–	59.2	62.2

Oc1ncc(N(CCCl)CCCl)c(O)n1 [Uracil mustard]
Settings	drug sensitivity score	normalised viability [%]
HCC1937 [10]	3.7	–
HDQ-P1 [1]	–	94.8
Hs578T [8]	0	–
MDA-MB-436 [9]	0	–
MDA-MB-453 [2]	–	104

normalised viability [%]
Settings	3 nM	10 nM	30 nM	100 nM	1000 nM	10000 nM
BT-474	–	122	–	–	120	116
BT-549	–	93.4	–	–	103	90.6
CAL-51	96.7	–	96.7	95.7	–	–
CAL-85-1	94.2	–	94.2	96.7	–	–
CAL-120	–	88.3	–	–	87.5	82.5
CAL-148	85.3	–	97.1	101	–	–
DU-4475	92	–	89.5	101	–	–
HCC1143	–	78.4	–	–	84.8	92.6
HCC1599	–	82.1	–	–	78.4	92.7
HCC1937 [7]	–	143	–	–	82.4	66.7
HDQ-P1 [4]	124	–	111	107	–	–
Hs578T [3]	–	106	–	–	100	80.3
MDA-MB-231	–	100	–	–	103	89.5
MDA-MB-436 [5]	–	103	–	–	76.6	97.8
MDA-MB-453 [6]	103	–	107	101	–	–
MDA-MB-468	–	109	–	–	97.5	85.7
MFM-223	–	99.2	–	–	95.9	99.8
SK-BR-3	–	109	–	–	95.1	79.8
